# Patent publication US7947827B2 (priority 2006, dated 2011)
# Like-named read-outs stand apart in the source and are kept apart here.
# Assays:
# [1] = system: azoxymethane- and IQ-induced aberrant crypt foci; conditions: in vivo; cited from earlier work
# [2] = rat, in vivo; cited from earlier work
# [3] = mouse, in vivo, cited from earlier work
# [4] = in vivo; cited from earlier work
# [5] = rat, in vivo; cited from earlier work; remark: listed apart in the source
# [6] = rat, in vivo; cited from earlier work; remark: listed apart in the source
# [7] = rat, in vivo; cited from earlier work; remark: listed apart in the source
# [8] = guinea pig, in vivo; cited from earlier work
# [9] = pig, in vivo, cited from earlier work
# [10] = in vivo, ip; cited from earlier work
# [11] = rabbit, in vivo, cited from earlier work
# [12] = dog, in vivo, cited from earlier work
# [13] = rat, in vivo, cited from earlier work
# [14] = mouse, in vivo, po, 2500 mg/kg; cited from earlier work
# [15] = system: bone marrow cells of mice; conditions: mouse, in vivo; cited from earlier work
# [16] = system: NQO activity in cultured murine hepatoma cells; conditions: cited from earlier work
# [17] = rat, in vivo; cited from earlier work; remark: listed apart in the source
# [18] = in vivo, po; cited from earlier work
# [19] = rhesus monkey, in vivo, iv
# [20] = parameters: species or system sheep; conditions: in vivo
# [21] = parameters: species or system humans; conditions: in vivo
# [22] = rhesus monkey, in vivo, iv; cited from earlier work
compound,measurement,setting,value
chlorophyll,azoxymethane- and IQ-induced aberrant crypt foci,[1],inhibited
potassium sodium chlorophyllin copper complex [sodium potassium chlorophyllin],"Cu toxicity or deposition in liver, kidney or spleen",[2],no evidence of Cu toxicity or deposition
same,gross or histopathological changes,[2],No gross or histopathological changes
same,LD50,[3]; po,7000 mg/kg
same,scurvy,[4],no evidence of scurvy
same,effects in offspring,[5],locomotory difficulties and skeletal muscle defects
same,"copper storage in liver, kidney or spleen",[6],No copper storage occurred
same,adverse effects,[7],without any adverse effects except weight loss related to food refusal
same,ill effects or pathological change,[8],without ill effects or pathological change
Sodium chlorophyllin copper complex,LD50,[9]; im,> 20 mg/kg
same,LD50,[9]; iv,> 10 mg/kg
same,LD50,[3]; im,> 500 mg/kg
same,LD50,[3]; ip,> 1000 mg/kg
same,LD50,[3]; iv,> 400 mg/kg
same,LD50,[10],> 60 mg/kg
same,LD50,[11]; im,> 60 mg/kg
same,LD50,[11]; ip,> 500 mg/kg
same,LD50,[11]; iv,> 200 mg/kg
same,LD50,[12]; im,> 50 mg/kg
same,LD50,[12]; ip,> 200 mg/kg
same,LD50,[12]; iv,> 200 mg/kg
same,LD50,[13]; im,> 250 mg/kg
same,LD50,[13]; ip,> 1000 mg/kg
same,LD50,[13]; iv,> 250 mg/kg
sodium copper chlorophyllin,ill effects,[14],without any ill effects
same,"reducing clastogenicity from cesium chloride, mercuric chloride and cobalt chloride",[15],demonstrated efficacy
same,concentration required to double NQO activity (CD),[16],30 µM
same,potency as NQO inducer relative to Chl,[16],~10 times
chlorin e4 ethyl ester,concentration required to double NQO activity (CD),[16],20 µM
same,potency as NQO inducer relative to Chl,[16],50 times
"COc1cc2c(c3oc(=O)c4c(c13)CCC4=O)[C@@H]1C=CO[C@@H]1O2 [AFB1, aflatoxin B1]",absorption rate constant (ka),[17],5.84 ± 0.05 h⁻¹
same,total dose excreted in first 48 hours,[18],approximately 90%
same,terminal half-life (t1/2β) from all routes of excretion,[19],approximately 24 hours
same,t1/2,[20],approximately 24 hours
same,"terminal half-life, conservative estimate",[21],less than 24 hours
same,time to complete absorption,[21],0.5 to 1.0 h
same,"dose eliminated in urine as chloroform extractable, first 24 hours",[22],~10%
same,"dose eliminated in urine as unbound, first 24 hours",[22],~30%
same,dose eliminated in urine within first 24 hours,[22],40%
same,dose remaining in the liver at 100 hours,[22],13.6%
same,dose remaining in the plasma at 100 hours,[22],5.8%
same,"fecal excretion of dose, 24 to 48 hours",[22],20%
same,"fecal excretion of dose, 48 to 72 hours",[22],~6%
same,"fecal excretion of dose, 72 to 100 hours",[22],~3%
same,"fecal excretion of dose, first 24 hours",[22],~4%
same,"total excreta after 100 hours, of administered dose",[22],73.1%
